From PubChem BioAssay AID1259426 (Fisher Drug Discovery Resource Center, 2018)
Activity calls are given as the source filed them.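 The calls were made as follows: active = EC50 under a set limit in control cells lacking the mosquito receptor, marking a fluorescence artifact; inactive = the rest.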

What follows are compounds tested against HEK293 Galpha15/GCaMP6s without NPYLR7, calcium fluorescence (assay: calcium response in NPYLR7-null HEK293 cells, dose response, counter-screen for mosquito NPYLR7 agonist project, cell-based, HEK293 lacking NPYLR7 (AID 1259426);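 also: potency for a rise in fluorescence over baseline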).

SMILES	EC50
COc1cc(OC)c(OC)cc1/C=C1/SC(=S)N(CC(=O)O)C1=O	5.82 µM
CCCc1nn2c(N)c(C=C3C=C(Cl)C(=O)C(Cl)=C3)c(=O)nc2s1	> 20 µM (inactive)
COc1ccc(CN2CCN(Cc3cccn3-c3ncccn3)CC2CCO)c(C)c1C (stereo not given)	> 20 µM (inactive)
C=C(C)Cn1c(C(=O)N2CCN(C(=O)CCC(=O)OCC)C(C)C2)cc2ccoc21 (stereo not given)	> 20 µM (inactive)
Cn1c(/C(C#N)=C/c2ccc(N3CCOCC3)o2)nc2ccccc21	> 20 µM (inactive)
O=c1oc2cc(O)ccc2cc1-c1nc2ccccc2o1	4.91 µM
CN1C(=CC=C2C(=O)CC(C)(C)CC2=O)C(C)(C)c2ccccc21	13.1 µM
CCN1CC(=Cc2cc(C)n(C3CC3)c2C)C(=O)C(=Cc2cc(C)n(C3CC3)c2C)C1	> 20 µM (inactive)
N#CC1C(=N)SC(=N)C(C#N)C1c1cccc(O)c1 (stereo not given)	10.1 µM
CCOC(=O)N1CCN(c2ccc(/C=C(\C#N)c3nc4ccccc4n3C)o2)CC1	> 20 µM (inactive)
CCNc1ccc(OC)nc1	> 20 µM (inactive)
O=C1NC(c2ccc3c(c2)OCO3)C(C(=O)c2ccccc2)C(O)(C(F)(F)F)N1 (stereo not given)	> 20 µM (inactive)
COc1ccc2nc(C=Cc3cc(Br)c(O)c(OC)c3)sc2c1	> 20 µM (inactive)
O=C1OC2(c3cc(Br)c(O)cc3Oc3c2cc(Br)c(O)[c]3[Hg])c2ccccc21 (stereo not given)	< 0.039 µM
COc1cc(-c2nc3n(n2)C(c2ccc(O)cc2)C(C(N)=O)=C(C)N3)cc(OC)c1OC (stereo not given)	> 20 µM (inactive)
COc1ccc(OC)c(CCNc2nc3cnc(-c4ccc(Cl)cc4)cc3n2C)c1	> 20 µM (inactive)
CCOc1cc2c(cc1C=C(C#N)C#N)OC(C)C2 (stereo not given)	14.7 µM
COc1ccc(OC)c(CCNc2nc3cnc(-c4cccc5ccccc45)cc3n2C)c1	> 20 µM (inactive)
COc1ccc2oc(=O)c(-c3nnc(Nc4cc(Cl)ccc4OC)s3)cc2c1	> 20 µM (inactive)
CNCC(O)c1ccc(O)c(O)c1 (stereo not given)	0.327 µM
Cc1cc(O)c(CN2CCCCC2)c2c1C(=O)/C(=C/c1cc3ccccc3o1)O2	18.5 µM
CC1(C)CC(c2[nH]cnc2-c2ccccc2)CCO1 (stereo not given)	> 20 µM (inactive)
CC(C)CN1C(=O)C(=Cc2c(N3CCN(CCO)CC3)nc3ccccn3c2=O)SC1=S	> 20 µM (inactive)
CCN(CC)CC[n+]1c(C)cc(C=C2Sc3ccccc3N2C)cc1C	> 20 µM (inactive)

SMILES	EC50
COc1ccc(C(=O)N(Cc2ccccc2)C2CCC(NC(=O)C3CCN(C(=O)c4ccccc4Cl)CC3)CC2)cc1 (stereo not given)	> 20 µM (inactive)
COc1ccc(S(=O)(=O)NCC2CCCN(C(=O)CSc3ccccc3)C2)cc1 (stereo not given)	> 20 µM (inactive)
C[C@H]1O[C@H](O[C@@H]2[C@@H](O[C@H]3CC[C@@]4(C)C(CC[C@]5(C)C4CC=C4[C@@H]6CC(C)(C)CC[C@]6(C(=O)O)CC[C@]45C)[C@]3(C)CO)OC[C@@H](O)[C@H]2O)[C@@H](O)[C@H](O)[C@@H]1O (stereo not given in full)	9.92 µM
Cc1cc(C=C2Sc3ccccc3N2C)cc(C)[n+]1Cc1ccncc1	18.9 µM
CCN1CCN(Cc2c(O)ccc3c2O/C(=C\c2cc4cc(Br)ccc4o2)C3=O)CC1	6.94 µM
CNC[C@H](O)c1ccc(O)c(O)c1	0.039 µM
COc1ccc(C2=NN(C(=O)CN3CCOCC3)C(c3nc4ccccc4[nH]3)C2)cc1 (stereo not given)	> 20 µM (inactive)
CCC(C)[n+]1c(C)cc(C=C2Sc3ccccc3N2CC)cc1C (stereo not given)	3.73 µM
CCOc1ccc(C(=O)Nc2sc3c(c2-c2nc4ccccc4s2)CCN(C)C3)cc1	> 20 µM (inactive)
COc1cc(C=C(C#N)C(=O)OC(C)C)cc(Cl)c1O	> 20 µM (inactive)
COCCn1c(C)cn2c3c(=O)n(Cc4ccc(Cl)cc4)c(=O)n(C)c3nc12	> 20 µM (inactive)
O=C(N=Nc1c(O)[nH]c2ccc(Br)cc12)c1ccccc1Cl	> 20 µM (inactive)
O=C1c2cccc3c(Nc4ccccc4)ccc(c23)C(=O)N1c1ccccc1	5.39 µM
Cc1cccc(C2=N/C(=C\c3cc4cc5c6c(c4oc3=O)CCCN6CCC5)C(=O)O2)c1	0.219 µM
Oc1oc(-c2ccccc2Br)nc1C=Nc1ccccc1	10.6 µM
COc1cc(C=C(C#N)S(=O)(=O)c2ccc(F)cc2)cc(Br)c1O	> 20 µM (inactive)
CC1C(=O)c2cccc3c(=O)n(-c4ccccc4)c(O)c(c23)C1=O (stereo not given)	> 20 µM (inactive)
Cc1cc(O)c(CN2CCN(C)CC2)c2c1C(=O)/C(=C/c1cccs1)O2	16.8 µM
C(=Cc1ccccc1)C=NNc1ncnc2ccccc12	> 20 µM (inactive)
N#C/C(=C/c1ccc(N2CCCCCC2)o1)c1ccc(F)cc1	19.3 µM
Cc1nc(=O)c(-c2ccccc2)c(C)n1-c1ccccc1O	> 20 µM (inactive)
C[C@@H](NC(=O)CN1Cc2ccc(N3CCOCC3)nc2C1=O)c1ccccc1	> 20 µM (inactive)
Cc1ccc(N2C(=O)NC(=O)/C(=C\c3cccs3)C2=O)cc1	> 20 µM (inactive)
O=C(O)c1[nH]ncc1CN1CCc2onc(-c3ccc(C(F)(F)F)cc3)c2C1	> 20 µM (inactive)

SMILES	EC50
CCOC(=O)C1CCN(C(=O)CC(c2cccc(C(F)(F)F)c2)c2c[nH]c3c(CC)cccc23)CC1 (stereo not given)	> 20 µM (inactive)
COCCCN1COc2ccc3c(c2C1)O/C(=C\c1cc(OC)c(OC)c(OC)c1)C3=O	11.4 µM
COc1ccccc1CCNC(=O)c1ccc(Cn2c(C)nc3ccccc32)o1	> 20 µM (inactive)
CCN(CC)c1ccc2c(-c3ccccc3C(=O)O)c3ccc(=[N+](CC)CC)cc-3oc2c1	3.62 µM
CS(=O)(=O)Nc1nc2n(n1)C(c1ccccc1)CC(c1ccc(Cl)cc1)=N2 (stereo not given)	> 20 µM (inactive)
Nc1nc(Cl)nc2c1ncn2[C@@H]1O[C@H](COP(=O)(O)OP(=O)(O)OP(=O)(O)O)[C@H](O)C1O (stereo not given in full)	> 20 µM (inactive)
CC(C(=O)O)N1C(=O)/C(=C/c2ccc(N(C)C)cc2)SC1=S (stereo not given)	7.74 µM
CN1CCN(Cc2c(O)ccc3c2O/C(=C\c2cc4cc(Br)ccc4o2)C3=O)CC1	12.7 µM
OC=c1ccc2cccc3nc(C(F)(F)F)nc1c23	11.2 µM
COc1ccc(-c2cccc(-c3ccc(NC(=O)c4oc5ccccc5c4C)cc3)n2)cc1	> 20 µM (inactive)
CCCc1[nH]n(-c2ccc(Cl)cc2)c(=O)c1/C=C1\NC(=O)N(Cc2ccc(C)cc2)C1=O	> 20 µM (inactive)
COc1cc(C=C2C=c3c(O)cccc3=C2O)cc(Cl)c1O	0.524 µM
CC1(C)CC(=O)C2C(=Nc3[nH]c(=S)[nH]c(=O)c3C2c2ccc3c(c2)OCO3)C1 (stereo not given)	> 20 µM (inactive)
CCCCNC(=O)CCCCCNC(N)=O	> 20 µM (inactive)
N#CC1C(=N)SC(=N)C(C#N)C1c1cccc(F)c1 (stereo not given)	7.03 µM
CCc1nn(C(C)C(=O)NC(C)CCc2ccco2)c(=O)c2cc3occc3n12 (stereo not given)	0.743 µM
O=P1(Nc2cc(C(F)(F)F)ccc2Cl)C=C(c2ccccc2)OC(c2ccccc2)=C1	> 20 µM (inactive)
O=c1[nH]c(SCCO)nc2sc3c(c12)CCCC3	> 20 µM (inactive)
COc1ccc(/C=C2\Oc3c(ccc4c3CN(CC3CCCO3)CO4)C2=O)cc1 (stereo not given)	9.33 µM
CN1C(=S)N(CCCN2CCOCC2)C(=O)/C1=C/c1ccc(N(C)C)cc1	> 20 µM (inactive)
CC(=O)NN1C(=O)/C(=C\c2ccc(O)cc2)SC1=S	3.61 µM
Cc1cc(O)c(CN2CCN(CCO)CC2)c2c1C(=O)/C(=C/c1cc3ccccc3o1)O2	7.38 µM
